Data set [1] relates to SH-SY5Y cells. The data set is described as follows: LC-MS determination of total MDA, SH-SY5Y. It counts as cell-based, human. Conditions: all time intervals.
Data set [2] concerns mice treated with scopolamine. The data set is described as follows: Passive avoidance (PA) task, scopolamine-induced amnesia. It counts as in vivo. The conditions noted are these: 10 mg/kg i.p., vs scopolamine-treated group. The method, then:
(§1) Animals and housing conditions
(§2) In all pharmacodynamic in vivo experiments, except for the Barnes maze (BM) task, adult male Albino Swiss (CD-1) mice weighing between 18 and 22 g and purchased from the Animal Breeding Farm of the Faculty of Pharmacy, Jagiellonian University Medical College were used. In BM task, C57BL/6J mice of the same weight (Animalab, Poland) were used.
Animals were housed in cages (10 mice per cage) at a constant temperature of 22 ± 2 °C, humidity of 55 ± 10%, and a light/dark (12:12) cycle (lights on at 7 AM). Before the experiments, the animals had unlimited access to food and water. Specified conditions for the maintenance of mice were ensured throughout the experiments, including tree bedding (Transwior, Poland) and cage enrichment (tunnels, nesting material, wooden igloos, etc.). […]
doses for behavioral assays. Lower doses were also assessed if at least one of them was […]
On the first day, during the acquisition trial (a conditioning phase), the test compound 6, scopolamine, and vehicle were injected. […] The latency between opening the guillotine gate and the mouse entering the black compartment was measured for each mouse. On the next day, during the retention (drug-off) trial, the mice were placed again into the white compartment for a 30-s habituation period, and the latency to enter the black compartment was measured for each mouse. […]

Data set [3] concerns mice. Briefly: Four-plate test (FPT). The format is in vivo. The conditions noted are these: 0.1, 1 and 10 mg/kg i.p., vs control. The procedure:
as §1, §2
Animals were housed in cages (10 mice per cage) at a constant temperature of 22 ± 2 °C, humidity of 55 ± 10%, and a light/dark (12:12) cycle (lights on at 7 AM). Before the experiments, the animals had unlimited access to food and water. […]
Briefly, mice were individually placed in a glass cylinder (25 cm high, 10 cm in diameter) containing 11 cm of water maintained at 23–25 °C and were left therein for 6 min. […] The total duration of immobility was measured during the final 4 min of a 6-min test session. […]
The four-plate apparatus (FPT; Bioseb, France) consists of a cage (25 × 18 × 16 cm) that is floored with four rectangular metal plates (11 × 8 cm). […] The number of punished crossings was counted […]
of the closed arms. […] The following parameters were measured in this test: time spent in open arms of the EPM device and the number of entries to open arms. […]

The target in data set [4] is mGAT1 (Mus musculus, UniProt P31648). Briefly: [3H]GABA uptake assay, mGAT1. It counts as cell-based.
Data set [5] can be described thus: Pharmacokinetic study after i.p. administration. The conditions noted are these: mice, 10 mg/kg i.p. It counts as in vivo.
Experimental: Pharmacokinetic study after i.p. and i.g administration
mg/kg), blood samples were collected from mice under deep terminal anesthesia directly by cardiac puncture into heparinized 1.5 mL tubes at selected time intervals.
The samples were centrifuged at 3,000 × g for 10 min (10 °C), and the plasma samples were stored at -80 °C until the HPLC analysis.
The blood in brain vessels would interfere with the assay of actual brain tissue concentrations.
Therefore, the animals were perfused transcardially with saline solution (0.9% NaCl) for 5 min (10 mL/min). After perfusion, the skull was opened, and the brain was carefully removed and immediately stored at -80 °C until the HPLC analysis.
UHPLC-MS method for pharmacokinetics study
Ultra high-performance liquid chromatography system consisting of Ultimate 3000 RS pump Dionex (Thermo Scientific, San Jose, CA, USA) coupled with high-resolution mass spectrometer with orbitrap analyzer (Q Exactive Focus, Thermo Scientific, San Jose, CA, USA) was used in quantitative analyses of 6 in plasma and brain homogenate. According to the EMA[43] and FDA[42] guidelines on Bioanalytical method validation, the method was fully validated for plasma and partially for brain homogenate.
Before analysis, 50 μL of plasma or brain homogenate was precipitated with an internal
standard of 200 μL acetonitrile (ACN). The mixture was vortexed for 1 min at 1,500 rpm and
centrifuged at 12,074 g for 5 min at 20 °C. The supernatant was then transferred to an
injection vial and analyzed.
mm ID (Phenomenex, Torrance, CA, USA), protected with a guard column SecurityGuard
was performed in gradient elution mode with a flow rate of 0.6 mL/min and the following
composition of mobile phase: A) 0.1% FA in water (v/v) and B) 0.1% FA in ACN/MeOH in
The column was kept at 45 °C during
analysis. Samples were held at 10 °C in a light-tight autosampler unit.
Heated-Electrospray Ionization II interface (HESI-II) in positive ion mode was used with the
following settings: spray voltage; +3.5 kV, S-lens RF level; +70 V, capillary temperature 350
°C, auxiliary gas heater temperature; 350 °C, sheet, and auxiliary gas flow; 45 and 15
arbitrary units, respectively. Full MS mode was used at resolution (m/𝛥m) ̴70,000 for
Xcalibur software (v 4.0) was used for data evaluation.

The values below come from article PMC11796312, “Multifunctional, Fluorene‐Based Modulator of Cholinergic and GABAergic Neurotransmission as a Novel Drug Candidate for Palliative Treatment of Alzheimer's Disease” (Angewandte Chemie (International Ed. in English), 2024).

As a reminder, the IC50 is the concentration needed to halve the response being measured. Read a low IC50 as greater potency in that assay. By Tmax is commonly meant the time from dosing to the highest level. Broadly, the MRT is a mean duration of stay, worked out from the concentration-time curve. In general, Cmax refers to the maximum level reached in the sampled fluid or tissue. The half-life is the time needed for the level to fall by half in the phase considered.

The structures appear in SMILES notation. Where “and” joins values, the source holds several entries; their conditions need not be identical. Equal entries are not always repeated. Entries after “also recorded” stand apart in the source; their conditions may differ. Where two headings read alike, the source gives them in different places.

As to `O[C@H](CNCC1CC1)[C@H](Cc1ccccc1)NC1c2ccccc2-c2ccccc21` [Compound 6], the “increase in intracellular level of MDA” value in data set [1] was “no significant increase”. Further, the “step-through latency in the retention trial” value in data set [2] is “significant differences were observed in the retention trial; also recorded: prolonged step‐thorough latency”. Also, in data set [3], the “number of punished crossings” value is given as “increased the number of punished crossings; also recorded: statistically significant increase in the number of punished crossings”. This compound displayed an IC50 in data set [4] of 11 µM. The time of peak concentration (Tmax) in data set [5] (ICR-CD1, mouse, brain, ip, 10 mg/kg, read-out: brain Tmax (converted)) was 0.917 h. Besides, the Kp in data set [5] (ICR-CD1, mouse, brain/plasma, ip, 10 mg/kg, read-out: Kp (AUCbrain/AUCplasma), brain-to-plasma ratio) came to 11.1. The MRT in data set [5] (ICR-CD1, mouse, ip, plasma) was 3.62 h. Moreover, the k el in data set [5] (ICR-CD1, mouse, ip, plasma, read-out: λz (converted)) is 7.5e-05 s⁻¹. The compound also had a Cmax in data set [5] (ICR-CD1, mouse, plasma, ip, 10 mg/kg) of 430 ± 57.9 ng/mL. The half-life in data set [5] (ICR-CD1, mouse, plasma, ip, 10 mg/kg, plasma, read-out: Half-life) came to 2.69 ± 0.237 h. Besides, the Vd/F in data set [5] (ICR-CD1, mouse, plasma, ip, 10 mg/kg, plasma, read-out: Vss/F) stood at 38.2 ± 4.47 L/kg. For the same compound, the Vd/F in data set [5] (ICR-CD1, mouse, plasma, ip, 10 mg/kg, plasma, read-out: Vz/F) turned out to be 40.9 ± 4.95 L/kg. For the same compound, the Tmax in data set [5] (ICR-CD1, mouse, plasma, ip, 10 mg/kg, read-out: plasma Tmax (converted)) was 0.389 h. In addition, in data set [5], the “brain AUCtotal” value is recorded as 650,923.00 ± 152,288.00 min.ng/g and the “plasma AUCtotal” value is reported as 58,804.62 ± 3,318.21 min.ng/mL. In addition, the CL in data set [5] (plasma) was determined as 170 ± 10 mL/min/kg. In data set [5] (plasma, 10 mg/kg), the Vz/F is given as ~ 41 L/kg and the half-life is recorded as ~ 161 min. Further, in data set [5] (10 mg/kg), the “Kp (AUCbrain/AUCplasma), brain-to-plasma ratio” value was determined as 11; the “brain Cmax” value was 833.00 ± 62.32 ng/g and 833 ng/g; the “plasma Cmax” value came out at 430 ng/mL.
